Legend:
Type in all cases: functional
Rattus norvegicus [1] = assay: Tested for the ability to inhibit the pressor response to angiotensin II (AII) after (iv) administration at the dose of 1.0 mg/kg with duration of >24 hr in four rats
Rattus norvegicus [2] = assay: Tested for the ability to inhibit the pressor response to angiotensin II (AII) by oral administration at the dose of 1.0 mg/kg with duration of>6, <24 hr in four rats
Rattus norvegicus [3] = assay: Tested for the ability to inhibit the pressor response to angiotensin II (AII) by intravenous administration at the dose of 1.0 mg/kg with duration of >6, <24 hr in two rats
Rattus norvegicus [4] = assay: Tested for the ability to inhibit the pressor response to angiotensin II (AII) by oral administration at the dose of 1.0 mg/kg with duration of>6, <24 hr in two rats

SMILES	inhibition in vivo at 1 mg/kg (Rattus norvegicus [1])	inhibition in vivo at 1 mg/kg (Rattus norvegicus [2])	inhibition in vivo at 1 mg/kg (Rattus norvegicus [3])	inhibition in vivo at 1 mg/kg (Rattus norvegicus [4])
CCCCc1nn(-c2ccccc2C(F)(F)F)c(=O)n1Cc1ccc(-c2ccccc2S(=O)(=O)NC(=O)c2ccccc2Cl)cc1	91%	85%		
CCCCc1nn(-c2ccccc2C(F)(F)F)c(=O)n1Cc1ccc(-c2ccccc2S(=O)(=O)NC(=O)OC(C)(C)C)cc1			83%	87%
